Reference: US11446346B2, “Gastroretentive sustained release formulations of Bergenia ciliata” (COUNCIL OF SCIENTIFIC & INDUSTRIAL RESEARCH, priority 2017, dated 2022)
Where two headings read alike, the source gives them in different places.

Key:
[1] = pH dependent stability of bergenin (HPLC, 24 h); format: physicochemical; conditions: at pH 7.4 and above
Procedure: The stability study was performed in pH 1.2 buffer, pH 4.0 buffer, phosphate buffer pH 6.8, phosphate buffered saline pH 7.4, SGF (pH 1.2), SIF (pH 6.8) and plasma. The % of bergenin hydrolyzed after 24 h was determined by HPLC analysis. The HPLC analysis was carried out using the method as described in example 2.

IL-6 = test: In-vitro cytokine inhibition in LPS-treated THP-1 cells (ELISA), IL-6; format: cell-based, human; conditions: LPS 1 μg/ml, 24 h, sample 12.5 μg/mL
Procedure: (§1) For the in vitro analysis of pro-inflammatory cytokines (IL-6 and TNF-α), human leukemia THP-1 cells were seeded in a 24-well plate at a density of 4×10^5 cells/ml of RPMI medium per well. THP-1 cells were then treated with phorbol 12-myristate 13-acetate (20 ng/ml) for differentiation into macrophages for 18 h followed by a rest period of 48 h. Cells were further co-treated with test samples and 1 μg/ml of lipopolysaccharide (LPS) in a serum-free medium. Culture supernatant was harvested after 24 h for analysis of different cytokines by using OptEIA ELISA Kits from BD Biosciences. Total protein content for all the samples was calculated by using Bradford reagent from Bio-Rad Laboratories. All the samples were normalized by dividing cytokine concentration with total quantity of protein. Bergenin was reported earlier as an inhibitor of TNF-alpha and IL-6 and was therefore was used as a positive control in this assay.

[2] = rats; cited from earlier work
[3] = cited from earlier work
in vivo = test: in vivo; design: species or system SD rats; conditions: rat
Procedure: The study was performed in male SD rats. To determine oral bioavailability of bergenin, the bergenin was administered at 5 mg/kg by IV route and at 50 mg/kg by oral route. For comparative oral pharmacokinetic study of plain extract (IIIM-160-A002) and GRSR formulation (filled in 9el capsules), the dose equivalent to 6.2 mg/kg of bergenin was administered in SD rats in both these groups. Blood samples were collected (n=3/time point) at 0.083 (IV only), 0.25, 0.5, 1, 2, 4, 8 and 24 h, post-dose. At each time point about 200 μL of blood was collected by jugular vein into a labeled microfuge tube containing 200 mM K2EDTA solution (20 μL per mL of blood) and equivalent volume of heparinized saline was replaced following sample collection. The blood samples were processed to obtain the plasma samples within 30 min of scheduled sampling time. All plasma samples were stored below −60° C. until bioanalysis. The plasma samples were analyzed for bergenin content using a fit-for purpose LC-MS/MS method with a lower limit of quantification (LLOQ) of 9.95 ng/mL. The pharmacokinetic parameters of bergenin were calculated using the non-compartmental analysis tool of validated Phoenix® WinNonlin® software (version 6.3).

TNF-α = test: In-vitro cytokine inhibition in LPS-treated THP-1 cells (ELISA), TNF-α; format: cell-based, human; conditions: LPS 1 μg/ml, 24 h, sample 12.5 μg/mL
Procedure: as §1

## COc1c(O)cc2c(c1O)[C@@H]1O[C@H](CO)[C@@H](O)[C@H](O)[C@H]1OC2=O [Bergenin, bergenin]
[1]
  hydrolysis of bergenin after 24 h: gets hydrolyzed to its lactone ring opened product
IL-6; Homo sapiens
  inhibition at 12.5 µg/mL: 98%
IL-6
  IL-6 (pg/mL)/total protein (μg): 0.08 ± 0.107 (pg/mL)/total protein (μg)
[2]
  plasma half-life (t1/2): 1 to 2 h
[3]; pH 1.2
  stability at acidic pH of stomach: stable
[3]; pH 6.8 and above
  stability at intestinal pH: gets degraded
[3]; pH 7
  degradation half life: 14.4 h
[3]; pH 8
  degradation half life: 2.9 h
In vivo; male, SD
  bioavailability: 3%
In vivo; male, SD, iv, 5 mg/kg
  AUC(0-t): 874 ng·h/mL
  clearance: 95.5 mL/min/kg
  half-life: 19.1 min
  volume of distribution relative to normal total body water content (0.7 L/kg in rats): ~1.50 fold
In vivo; male, SD, po, 50 mg/kg
  AUC(0-t): 269 ng·h/mL
  Cmax: 170 ng/mL
  half-life: 104 min
  median time to reach the maximum plasma concentration: 0.25 h
In vivo; iv, 5 mg/kg
  clearance relative to normal hepatic blood flow (55 mL/min/kg in rats): ~1.74 folds
TNF-α; Homo sapiens
  inhibition at 12.5 µg/mL: 61%
TNF-α
  TNF-α (pg/mL)/total protein (μg): 2.40 ± 0.25 (pg/mL)/total protein (μg)
